According to patent US20130142866A1, “COMPOSITIONS AND METHODS FOR IMPROVED ORGAN TRANSPLANT PRESERVATION AND ACCEPTANCE” (NOVALIQ GMBH, priority 2010, published 2013):
Values after ≈ are worked out from the molar mass of the structure shown. “Also recorded” adds a separate entry of the source.

How the values were obtained:
freshly isolated T-cells = experiment: T-cell proliferation, anti-CD3/anti-CD28 activation, 3H-thymidine incorporation; format: cell-based
Procedure: A cell-culture system was used in which freshly isolated T-cells were polyclonally activated by anti-CD3/anti-CD28 beads. The cells were allowed to proliferate for at least 10 days in the presence or absence of different dilutions of the composition of the invention. T-cell proliferation was assessed on day 3, 5, 7 and 10 by means of 3H-thymidine incorporation. In this model, T-cell proliferation is maximal at day 3 and gradually declines at day 10.
The experiments were repeated, except that freshly isolated T-cells were stimulated with anti-CD3/antio-CD28 antibodies in the presence of the composition diluted to a concentration of 50 μM of N-octanoyl dopamine and various concentrations of ciclosporin A or tacrolimus. Similar concentrations of ciclosporin A or tacrolimus were also tested in the absence of the composition.

[1] = Compatibility with organ preservation solutions (UW, HTK); format: physicochemical; conditions: usual behaviour, leading to brownish-pink colour
Procedure: Two samples of the formulation of example 4 having a N-octanoyl dopamine concentration of 11.16 mg/mL were individually mixed with either University of Wisconsin solution (Viaspan, or UW) or histidine-tryptophan-ketoglutarate (HTK) solution (Custodiol) at a volume ratio of 1:4 (1 part of the inventive composition plus 4 parts of the conventional solution).

[2] = test system: Human umbilical vein endothelial cells (HUVEC) stimulated with TNF-α; experiment: TNF-α-mediated inflammation in HUVEC (gene expression profiling, qPCR, Western blotting, NF-κB activation); format: cell-based
Procedure: Human umbilical vein endothelial cells (HUVEC) were stimulated with TNF-α (tumour-necrosis-factor alpha) in the absence or presence of various concentrations of the N-octanoyl dopamine formulation. Affymetrix Gene Expression Profiling, quantitative PCR, Western-blotting and NF-κB activation were performed to assess the anti-inflammatory potential of the composition of the invention. As a comparator, a surfactant-free aqueous dispersion of N-octanoyl dopamine, which is not an embodiment of the invention, was also tested.

[3] = Solubilisation of N-octanoyl dopamine by polysorbates; format: physicochemical; conditions: 0.5 wt.-% polysorbate 20 or polysorbate 80 solution, aqueous with cosolvent or surfactant or cyclodextrin; 0.5 wt.-% polysorbate 20 or polysorbate 80, individually; read-out: amount of N-octanoyl dopamine solubilised
Source text: In one particular embodiment, the amount of amphiphilic excipient is at least about 0.05 wt.-%. According to a further embodiment, the amount is from about 0.1 wt.-% to about 30 wt.-%, or from about 0.5 wt.-% to about 20 wt.-%, respectively. […] However, if the composition is to be used as a concentrate to be added to a commercial solution for tissue and organ preservation, the concentrate itself may also comprise the amphiphilic excipient at a relatively high concentration, taking into account the dilution factor. In a further embodiment, the ratio of N-octanoyl dopamine to the amphiphilic excipient is selected in the range from about 5:1 to about 1:50.

Cardiomyocytes = experiment: Cold storage injury of cardiomyocytes (ATP, LDH release, contraction rate); format: cell-based, rats
Procedure: Cardiomyocytes were freshly isolated from new born rats and cultured for 3 days. […] ATP levels and LDH release was measured after 8 hours of cold preservation and hereafter cardiomyocytes were re-warmed and the contraction rate per well and ATP regeneration were determined.

In the case of `CCCCCCCC(=O)NCCc1ccc(O)c(O)c1` [N-octanoyl dopamine, N-octanoyl-4-(2-aminoethyl)benzene-1,2-diol], the T-cell proliferation (freshly isolated T-cells; 25 μM N-octanoyl dopamine) is reported as “without effect”, the T-cell proliferation (freshly isolated T-cells; 50 μM N-octanoyl dopamine) is reported as “inhibited T-cell proliferation at day 3; also recorded: only partly inhibited T-cell proliferation at day 3 but not thereafter” and the “reduction of the amount of calcineurin inhibitor required for complete T-cell suppression” value (freshly isolated T-cells; 50 μM N-octanoyl dopamine) is reported as “at least 1000 fold”. The T-cell proliferation (freshly isolated T-cells; 100 μM N-octanoyl dopamine) was “inhibited at day 3, day 5 and partly at day 7”, the “NFκB and AP-1 in T-cells” value (freshly isolated T-cells; downstream of early T-cell receptor signalling events) was “inhibition” and the “inhibition of T-cell proliferation after oxidation / without redox activity” value (freshly isolated T-cells; oxidation of N-octanoyl dopamine, or compounds lacking redox activity) was “abrogated”. For the same molecule, the “oxidation of N-octanoyl dopamine when mixed with UW or HTK” value [1] was “occurs very rapidly”, the HO-1 expression [2] was “strongly upregulated” and the “concentration at which HO-1 was significantly induced” value [2] was 1 µM. The “concentration required for inhibition of VCAM-1 expression” value [2] was 50 µM and the solubility [3] was 40 mM (≈ 11.2 mg/mL).
For `NCCc1ccc(O)c(O)c1` [dopamine], the “LDH-release after cold storage” value (Cardiomyocytes; 8 hours at 4° C., FIG. 2) was “inhibited”, the “ATP level after cold storage” value (Cardiomyocytes; 8 hours at 4° C., compared with untreated cells, FIG. 1) was “dose-dependent mitigation of ATP loss” and the “regeneration of ATP after re-warming” value (Cardiomyocytes; after 8 hours at 4° C., compared to untreated cells) was “much faster”. The “contraction rate after re-warming” value (Cardiomyocytes; after 8 hours at 4° C., treated cells) was “significantly improved rate”.
For `C=CC[C@@H]1/C=C(\C)C[C@H](C)C[C@H](OC)[C@H]2O[C@@](O)(C(=O)C(=O)N3CCCC[C@H]3C(=O)O[C@H](/C(C)=C/[C@@H]3CC[C@@H](O)[C@H](OC)C3)[C@H](C)[C@@H](O)CC1=O)[C@H](C)C[C@@H]2OC` [tacrolimus, reference compound], the “concentration of maximal inhibition of T-cell proliferation” value (freshly isolated T-cells; calcineurin inhibitor alone, absence of the composition) was 1 µM and the “ciclosporin A or tacrolimus concentration still giving complete inhibition of T-cell proliferation” value (freshly isolated T-cells; in the presence of 50 μM N-octanoyl dopamine) was 1 nM.
